Experimental findings from publication PMC11699025 (Natural Products and Bioprospecting, 2025) are described below.

By Kd is commonly meant the free concentration of one partner at which half of the binding sites on the other are occupied at equilibrium, for simple one-to-one binding. A high value points to lower affinity. A word on the IC50: it is the concentration that gives 50% inhibition. A low value points to higher potency. Broadly, the EC50 is the concentration giving half of the maximal effect. A higher EC50 goes with weaker potency.

Series [1] deals with T1, BtCoV Rp3 PLpro (Bat coronavirus Rp3/2004, UniProt P0C6W6). Type of series: binding.
For series [2], the target named is T2, MERS-CoV PLpro (Middle East respiratory syndrome-related coronavirus, UniProt K9N7C7). The series can be described thus: biochemical. Type of series: binding.
T2 sequence (K9N7C7 1552-1823 limits assumed): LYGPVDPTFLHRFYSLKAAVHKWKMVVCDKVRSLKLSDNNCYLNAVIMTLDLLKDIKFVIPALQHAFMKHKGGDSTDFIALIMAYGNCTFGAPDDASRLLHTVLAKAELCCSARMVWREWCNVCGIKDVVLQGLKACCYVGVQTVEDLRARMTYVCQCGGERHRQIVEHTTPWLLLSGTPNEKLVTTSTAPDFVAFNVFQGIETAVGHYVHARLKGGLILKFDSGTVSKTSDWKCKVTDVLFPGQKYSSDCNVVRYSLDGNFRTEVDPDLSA
Series [3] concerns the target T1, BtCoV Rp3 PLpro. The series can be described thus: biochemical. Type of series: binding.
Series [4] has as its target T3, SARS-CoV PLpro (Severe acute respiratory syndrome coronavirus, UniProt P0C6X7). The series can be described thus: biochemical.
Series [5] concerns the target T4, MERS-CoV Mpro (Middle East respiratory syndrome-related coronavirus, UniProt K9N7C7). Type of series: binding.
A short description of another series: in vitro. The following applies: human.
For series [6], the target named is T5, BtCoV Rp3 Mpro (Bat coronavirus Rp3/2004, UniProt P0C6W6). As to the kind of experiment: biochemical. Type of series: binding.
In series [7] the target is T2, MERS-CoV PLpro. Type of series: binding.
For series [8], the target named is T5, BtCoV Rp3 Mpro. As to the kind of experiment: biochemical.
Series [9] has as its target T4, MERS-CoV Mpro. As to the kind of experiment: biochemical. Type of series: binding.
A further series relates to HCoV-OC43. As to the kind of experiment: microbe, parasite or virus in culture. Type of series: cell-based, human coronavirus OC43. The following applies: for EC50: Betacoronavirus 1, OC43, RD, 48 h.
The test system of another series is RD cells. The following applies: concentrations up to 100 µM.
In series [10] the target is T6, SARS-CoV Mpro (Severe acute respiratory syndrome coronavirus, UniProt P0C6X7). The series can be described thus: biochemical. Type of series: binding.
The target of series [11] is T6, SARS-CoV Mpro. Type of series: binding.
Series [12] has as its target T3, SARS-CoV PLpro. The series can be described thus: biochemical. Type of series: binding.
The next series has as its target SARS-CoV-2 PLpro WT (Severe acute respiratory syndrome coronavirus 2, UniProt P0DTD1). Type of series: binding.
Series [13] has as its target T7, SARS-CoV-2 PLpro (Severe acute respiratory syndrome coronavirus 2, UniProt P0DTD1). As to the kind of experiment: biochemical.
Series [14] deals with T8, SARS-CoV-2 Mpro (Severe acute respiratory syndrome coronavirus 2, UniProt P0DTD1). The series can be described thus: biochemical. Type of series: binding. As to conditions: pH 7.4, read-out: ka.
Series [15] has as its target T7, SARS-CoV-2 PLpro. The series can be described thus: biochemical. Type of series: binding. The following applies: pH 7.4, read-out: ka.
In series [16] the target is T8, SARS-CoV-2 Mpro. As to the kind of experiment: biochemical.

The structures appear in SMILES notation. Several values for one entry are separate records, joined by “and”; a condition that tells them apart may be missing. Equal values may be shown once.

T4 sequence (K9N7C7 3248-3553 limits assumed): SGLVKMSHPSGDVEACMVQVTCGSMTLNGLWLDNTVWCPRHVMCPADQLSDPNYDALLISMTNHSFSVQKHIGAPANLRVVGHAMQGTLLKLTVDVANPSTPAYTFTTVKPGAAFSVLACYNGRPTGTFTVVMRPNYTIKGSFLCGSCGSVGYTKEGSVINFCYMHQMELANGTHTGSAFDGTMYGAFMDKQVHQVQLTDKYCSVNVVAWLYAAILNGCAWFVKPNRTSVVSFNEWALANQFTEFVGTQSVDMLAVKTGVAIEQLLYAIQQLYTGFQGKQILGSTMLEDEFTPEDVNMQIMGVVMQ

`Cc1cc(O)c(O)c(Oc2cc(C)cc(O)c2Oc2cc(C)cc(O)c2O)c1` [Sydowiol B, sydowiol B]: the Tm value at BtCoV Rp3 PLpro [1] was 53.59 ± 0.20 (4.00) ℃ and 53.87 ± 0.13 (4.28) ℃ and 52.79 ± 0.27 (3.20) ℃; at MERS-CoV Mpro [5], 47.47 ± 0.33 (1.37) ℃ and 47.33 ± 0.00 (1.23) ℃ and 47.27 ± 0.16 (1.17) ℃; at MERS-CoV PLpro [7], 57.67 ± 0.32 (2.78) ℃ and 57.20 ± 0.13 (2.31) ℃ and 56.95 ± 0.13 (2.06) ℃; on SARS-CoV Mpro [11], 57.17 ± 0.19 (1.25) ℃ and 56.82 ± 0.25 (0.90) ℃ and 56.37 ± 0.28 (0.45) ℃; at SARS-CoV-2 PLpro WT, 51.24 ± 0.36 (5.29) ℃ and 50.31 ± 0.06 (4.36) ℃. The “△Tm” value at BtCoV Rp3 PLpro [1] is 53.59 ± 0.20 (4.00) ℃ and 53.87 ± 0.13 (4.28) ℃ and 52.79 ± 0.27 (3.20) ℃. The dissociation constant Kd on MERS-CoV PLpro [2] was determined as 450 nM; at BtCoV Rp3 PLpro [3], 11800 nM; on BtCoV Rp3 Mpro [6] it was 1930 nM; at MERS-CoV Mpro [9], 9350 nM; on SARS-CoV Mpro [10], 2540 nM; on SARS-CoV PLpro [12], 14200 nM. Besides, the values for the 50% inhibitory concentration (IC50) against SARS-CoV PLpro [4] and against BtCoV Rp3 Mpro [8] were 2420 ± 1100 nM and 1160 ± 1230 nM, respectively. In addition, the CC50 at 48 h in the series “in vitro” is more than 200000 nM. In the series on HCoV-OC43, a half-maximal effect (EC50) was put at 690 ± 100 nM. The “influence on cell viability” value in the series with RD cells is on record as “no influence”.
For the molecule `Cc1cc(O)c(O)c(Oc2cc(C)cc(O)c2O)c1` [Violaceol I, violaceol I], the kon on MERS-CoV PLpro [2] (pH 7.4, read-out: ka) worked out at 479 M⁻¹ s⁻¹; at BtCoV Rp3 PLpro [3] (pH 7.4, read-out: ka) it was 551 M⁻¹ s⁻¹; at SARS-CoV-2 Mpro [14], 969 M⁻¹ s⁻¹; on BtCoV Rp3 Mpro [6] (pH 7.4, read-out: ka), 532 M⁻¹ s⁻¹; on SARS-CoV-2 PLpro [15], 494 M⁻¹ s⁻¹; at MERS-CoV Mpro [9] (pH 7.4, read-out: ka), 454 M⁻¹ s⁻¹. For the same molecule, the kon was 547 M⁻¹ s⁻¹ on SARS-CoV Mpro [10] (pH 7.4, read-out: ka) and 516 M⁻¹ s⁻¹ at SARS-CoV PLpro [12] (pH 7.4, read-out: ka). Besides, the half-inhibitory concentration (IC50) against SARS-CoV-2 PLpro [13] came out at 42300 ± 1020 nM; against SARS-CoV-2 Mpro [16], 8270 ± 1150 nM. Further, the CC50 at 48 h in “in vitro” was more than 100000 nM. Besides, in the series with HCoV-OC43, the “Selection Index (SI)” value is reported as “>42.02”. For the same molecule, the EC50 with HCoV-OC43 turned out to be 2380 ± 20 nM. In the series on RD cells, the “influence on cell viability” value is recorded as “no influence”.
